Activity calls are given as the source filed them.
Experiments:
[1] = P. falciparum Dd2 growth inhibitors, dose response, SYBR Green, cherry-picked samples (AID 1159567); format: functional, cell-based
[2] = off-target signal loss in HeLa-CEM21 co-culture – HeLa F-luc CTL cells, cherry-picked, counter-screen for HIV-1 Env fusion inhibitor project, dose response (AID 652040); format: functional, cell-based;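 further: potency for signal decrease marking cytotoxic or nonspecific inhibition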
[3] = inhibitors of HIV Env-driven cell fusion, dose response, cherry-pick (AID 652057); format: functional, cell-based
[4] = ZM109 Env clade C HIV-1 fusion inhibitors, dose response, HeLa effector, CEM target cells, luciferase, cherry-pick (AID 652058); format: functional, cell-based
[5] = inhibitors of clade B AD8 Env fusion, dose response, cell-based, cherry-pick (AID 652062); format: functional;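 further: luciferase signal from cell-cell fusion driven by HIV-1 clade B AD8 Env; potency is for inhibitors of fusion seen as a drop in luminescence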
[6] = test system: H9c2; assay: cells; format: functional, cell-based; conditions: Rattus norvegicus, H9c2, Myocardium;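 further: confirmatory concentration-response retest of ultra-high-throughput screening hits for modulation of myocardial damage; cell death induced by hydrogen peroxide oxidative stress; compound pretreatment for 60 min then peroxide exposure for 2 h; potency is for protecting the cells against peroxide damage rather than for killing them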
[7] = growth suppression of beta-catenin-knockout colon cells, dose response, cell-based, HCT116, human colon tumor (AID 1045); format: functional;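 further: HCT116 colon tumor cells with beta catenin knocked out; cells exposed to compound for 60 hours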
[8] = growth suppression of PTEN-null colon cells, dose response, cell-based, HCT116 PTEN knockout (AID 1047); format: functional;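 further: HCT116 colon tumor cells with PTEN knocked out; cells exposed to compound for 60 hours before readout; potency for loss of cell viability measured by luminescence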
[9] = test system: H4; assay: Luminescence Cell-Based Dose Response HTS to Identify Activators of 5'UTR Stem-Loop Driven Prion Protein mRNA Translation in H4 Neuroglioblastoma Cells. [Related pubchem assays: 1829 (Project Summary), 1814 (Primary HTS)]; format: functional; conditions: Homo sapiens
[10] = Luminescence Cell-Based Dose Confirmation HTS to Identify Activators of 5'UTR Stem-Loop Driven Alpha-Synuclein mRNA Translation in H4 Neuroglioblastoma Cells. [Related pubchem assays: 1829 (Project Summary), 1814 (Primary HTS)]; format: functional
[11] = Luminescence Cell-Based Dose Response HTS to Identify Activators of Luciferase Translation or Activity in H4 […] Cells. [Related pubchem assays: 1829 (Project Summary), 1814 (Primary HTS)]; format: functional
[12] = target: T1, Streptokinase A (Streptococcus pyogenes serotype M1, UniProt P10520); assay: S. pyogenes streptokinase expression inhibitors, potency, dose response, plasminogen activation absorbance, OD405 (AID 1914); format: functional, Streptococcus pyogenes M1 GAS;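 further: secreted streptokinase activity via plasminogen activation per viability signal from cell pellet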
T1 sequence (P10520 whole entry): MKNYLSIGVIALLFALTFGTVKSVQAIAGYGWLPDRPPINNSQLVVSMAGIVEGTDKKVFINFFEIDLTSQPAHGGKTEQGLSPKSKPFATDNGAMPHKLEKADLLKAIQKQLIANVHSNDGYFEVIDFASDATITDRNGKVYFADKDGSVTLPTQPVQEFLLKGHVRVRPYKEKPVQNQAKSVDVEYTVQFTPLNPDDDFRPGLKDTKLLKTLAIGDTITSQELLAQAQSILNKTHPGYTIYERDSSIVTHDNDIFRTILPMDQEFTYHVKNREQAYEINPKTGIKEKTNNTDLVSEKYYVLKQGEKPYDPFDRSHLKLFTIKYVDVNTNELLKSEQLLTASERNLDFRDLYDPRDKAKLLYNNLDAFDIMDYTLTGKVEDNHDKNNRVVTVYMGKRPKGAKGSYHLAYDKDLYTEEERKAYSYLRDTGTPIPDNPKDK

[13] = target: T2, Polyadenylate-binding protein 1 (Homo sapiens, UniProt P11940); assay: PABP1 MLLE–PAM2 binding inhibitor potency, dose response, biochemical, fluorescence polarization, FITC-PAM2 peptide (AID 602259); format: functional; conditions: read-out: IC50_Mean
T2 sequence (P11940 whole entry): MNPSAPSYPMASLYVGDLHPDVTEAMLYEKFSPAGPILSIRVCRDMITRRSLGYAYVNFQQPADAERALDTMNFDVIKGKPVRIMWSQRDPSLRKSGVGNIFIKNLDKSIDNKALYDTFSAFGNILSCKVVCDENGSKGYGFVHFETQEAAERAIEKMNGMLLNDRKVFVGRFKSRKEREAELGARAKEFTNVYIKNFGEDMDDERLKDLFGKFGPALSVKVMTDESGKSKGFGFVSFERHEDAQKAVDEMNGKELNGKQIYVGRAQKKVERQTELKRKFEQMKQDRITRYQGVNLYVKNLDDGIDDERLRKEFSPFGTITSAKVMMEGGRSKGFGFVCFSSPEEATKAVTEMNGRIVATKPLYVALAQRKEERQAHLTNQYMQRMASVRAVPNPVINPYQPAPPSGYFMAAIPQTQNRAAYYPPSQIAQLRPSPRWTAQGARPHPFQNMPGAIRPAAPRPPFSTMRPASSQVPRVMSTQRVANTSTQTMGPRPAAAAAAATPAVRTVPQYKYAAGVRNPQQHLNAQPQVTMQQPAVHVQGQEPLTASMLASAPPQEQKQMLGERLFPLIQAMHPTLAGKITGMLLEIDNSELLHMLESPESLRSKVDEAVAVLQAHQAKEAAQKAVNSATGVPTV

[14] = target: T2, Polyadenylate-binding protein 1; assay: PABP1 MLLE–PAM2 interaction inhibitors, dose response, miRNA deadenylation inhibitor project, biochemical, fluorescence polarization, Cy5-PAM2 peptide, secondary (AID 602260); format: functional; conditions: read-out: IC50_Mean
[15] = C. albicans growth with fluconazole, confirmation, fluorescence, retest (AID 2467); format: functional, cell-based
[16] = NIH-3T3 fibroblast cytotoxicity, dose response, cytotoxicity control, cell-based, fluorescence, Alamar Blue, secondary assay (AID 2327); format: functional;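 further: NIH-3T3 mouse fibroblasts cultured with fluconazole at 8 µg/mL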
[17] = target: T3, Carboxy-terminal domain RNA polymerase II polypeptide A small phosphatase 1 (Homo sapiens, UniProt Q9GZU7); assay: inhibitors of CTDSP1, concentration-response testing, biochemical assay, absorbance-based, actives from ultra-high-throughput screening (AID 540297); format: functional
T3 sequence (Q9GZU7 whole entry): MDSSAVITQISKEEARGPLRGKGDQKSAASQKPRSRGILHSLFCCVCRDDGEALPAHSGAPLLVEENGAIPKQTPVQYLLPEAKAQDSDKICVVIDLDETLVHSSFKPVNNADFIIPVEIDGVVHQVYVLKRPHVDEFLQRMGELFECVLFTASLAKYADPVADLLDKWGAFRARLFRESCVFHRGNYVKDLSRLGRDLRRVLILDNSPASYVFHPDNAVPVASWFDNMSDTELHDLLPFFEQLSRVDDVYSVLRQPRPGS

[18] = target: T4, Corticotropin-releasing factor receptor 2/Corticotropin-releasing factor-binding protein (Homo sapiens, UniProt P24387+Q13324); assay: Dose Response confirmation of uHTS hits for small molecule antagonists of the CRF-binding protein and CRF-R2 receptor complex.; format: functional; conditions: read-out: IC50_Mean
T4 sequence (Q13324 whole entry): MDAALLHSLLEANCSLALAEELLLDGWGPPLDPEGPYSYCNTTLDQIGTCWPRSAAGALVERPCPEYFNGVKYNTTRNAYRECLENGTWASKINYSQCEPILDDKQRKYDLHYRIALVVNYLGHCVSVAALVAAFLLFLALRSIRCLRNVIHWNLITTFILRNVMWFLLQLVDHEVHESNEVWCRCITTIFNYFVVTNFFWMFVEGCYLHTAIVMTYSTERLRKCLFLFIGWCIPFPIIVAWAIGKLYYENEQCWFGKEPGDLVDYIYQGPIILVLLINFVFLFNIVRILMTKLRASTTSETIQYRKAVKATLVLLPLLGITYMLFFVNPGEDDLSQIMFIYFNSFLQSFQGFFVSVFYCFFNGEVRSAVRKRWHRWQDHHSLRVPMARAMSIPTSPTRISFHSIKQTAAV
T4 sequence (P24387 whole entry): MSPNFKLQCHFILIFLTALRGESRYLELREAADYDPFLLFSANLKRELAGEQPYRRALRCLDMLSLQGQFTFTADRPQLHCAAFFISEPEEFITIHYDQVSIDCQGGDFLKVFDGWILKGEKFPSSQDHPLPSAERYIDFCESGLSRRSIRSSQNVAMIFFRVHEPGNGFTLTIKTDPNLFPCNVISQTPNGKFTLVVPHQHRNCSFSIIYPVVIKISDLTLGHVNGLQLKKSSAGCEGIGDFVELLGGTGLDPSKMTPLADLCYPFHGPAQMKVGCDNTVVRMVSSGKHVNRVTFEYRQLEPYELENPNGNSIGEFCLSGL

[19] = target: T4, Corticotropin-releasing factor receptor 2/Corticotropin-releasing factor-binding protein; assay: activators of CRF receptor 2 with binding protein – uHTS hits, confirmation (AID 602473); format: functional; conditions: read-out: EC50_Mean

Row | SMILES | AC50 [2] | AC50 [3] | AC50 [4] | AC50 [5] | further results
1 | C/C=C/c1ccc([C@H]2[C@@H](CO)N(C(=O)C3CCCC3)[C@H]2CNCCC)cc1 |  |  |  |  | AC50 [1]: 4.85 µM (active)
2 | CC(C)C[C@@H](CN(C)N=O)N(C[C@H](Cc1ccccc1)N(CCc1ccccc1)N=O)N=O | 7.74 µM (active) | 4.34 µM (active) | 5.62 µM (active) | 7.36 µM (active) | 
3 | Cc1ccc2nc(O)c(CN(Cc3ccco3)S(=O)(=O)c3c(C)ccc4nsnc34)cc2c1 |  |  |  |  | IC50 [6]: 8.78 µM (active); EC50 [7]: 14.8 µM (active); EC50 [8]: 13.2 µM (active)
4 | O=C1C2C3C=CC(C4CC34)C2C(=O)N1/N=C/c1c[nH]c2ccccc12 (centres undefined) |  |  |  |  | EC50 [9]: 14.9 µM (active); EC50 [10]: 11 µM (active); EC50 [11]: > 120 µM (not active)
5 | CC(C)[C@H](CN(N=O)[C@@H](Cc1ccccc1)CN(C)N=O)N(CCc1ccccc1)N=O | 10.8 µM (active) | 5.66 µM (active) | 12.3 µM (active) | 15.5 µM (active) | 
6 | CCCOc1ccc2ccccc2c1/C=N/n1cnnc1 | 25.6 µM (active) | 24.8 µM (active) | 4.27 µM (active) | 18.5 µM (active) | 
7 | CC(=O)c1ccc(NC(=S)Nc2ccc(Br)c(Cl)c2)cc1 |  |  |  |  | EC50 [12]: > 150 µM (not active); IC50 [13]: > 66 µM (inactive); IC50 [14]: > 66 µM (inactive)
8 | O=C1C(CSCc2ccccc2)NC(=S)N1c1ccccc1 (centres undefined) |  |  |  |  | EC50 [9]: > 120 µM (not active); EC50 [10]: > 120 µM (not active); EC50 [11]: > 120 µM (not active)
9 | Cc1ccc(S(=O)(=O)N2CCCCC2)cc1C(=O)NCCC1=CCCCC1 | 7.03 µM (active) | 3.71 µM (active) | 5.36 µM (active) | 17.1 µM (active) | 
10 | Cc1ccc(Nc2nnc(C3C(=O)N(C)C4(C)CC3c3cc(Br)ccc3O4)s2)cc1 (centres undefined) |  |  |  |  | EC50 [15]: 4.45 µM (active); EC50 [16]: 19.8 µM (active)
11 | N=c1c2c(ncn1CCN1CCOCC1)Oc1ccc3ccccc3c1C2c1ccccc1 (centres undefined) |  |  |  |  | EC50 [7]: 15.3 µM (active); EC50 [8]: 16.5 µM (active)
12 | CCCN(C)C[C@@H]1Oc2cc(C#Cc3ccncc3)ccc2S(=O)(=O)N([C@H](C)CO)C[C@@H]1C |  |  |  |  | AC50 [1]: 6.76 µM (active)
13 | C=CCn1c(=N)n(CC(=O)c2cccc([N+](=O)[O-])c2)c2ccccc21 |  |  |  |  | EC50 [15]: > 38 µM (not active); EC50 [16]: 134 µM (active)
14 | CCCc1cc(=O)oc2cc(OCC(=O)NC(Cc3c[nH]c4ccc(O)cc34)C(=O)O)c(Cl)cc12 (centres undefined) |  |  |  |  | IC50 [17]: 32.7 µM (active)
15 | CCc1ccc(-c2cn3nc(C)c(C)nc3n2)cc1 | 11 µM (active) | 3.94 µM (active) | 29.3 µM (active) | 6.35 µM (active) | 
16 | CN1C(c2ccc(F)cc2)=CS/C1=C(/C#N)c1nnc(N2CCOCC2)n1-c1ccccc1 |  |  |  |  | IC50 [18]: > 47.1 µM (inactive); EC50 [19]: > 53 µM (inactive); EC50 [9]: > 120 µM (not active); EC50 [10]: > 120 µM (not active); EC50 [11]: > 120 µM (not active)
17 | CC(C)(COC(=O)C(c1ccccc1)c1ccccc1)CN1CCOCC1 | 4.01 µM (active) | 4.96 µM (active) | 2.42 µM (active) | 1.83 µM (active) | 
18 | O=C(CCCOc1ccc(Cl)cc1Cl)Nc1cc(S(=O)(=O)N2CCOCC2)ccc1N1CCOCC1 | 6.33 µM (active) | 3.23 µM (active) | 11.8 µM (active) | 15.8 µM (active) | 
